Common to all, as to experiment: Postemergence herbicidal activity, greenhouse trial (visual injury 0-100%)
Holding throughout (type): in vivo

Assay [1] has as its system chickweed (Stellaria media, STEME). The conditions noted are these: Stellaria media, post-emergence, read-out: % visual injury Obs. On the procedure: (§1) Seeds of the desired test plant species were planted in Sun Gro MetroMix® 306 planting mixture, which typically has a pH of 6.0 to 6.8 and an organic matter content of about 30 percent, in plastic pots with a surface area of 103.2 square centimeters (cm^2). […] The plants were grown for 7-36 days (d) in a greenhouse with an approximate 14-hour (h) photoperiod which was maintained at about 23° C. during the day and 22° C. during the night. Nutrients and water were added on a regular basis and supplemental lighting was provided with overhead metal halide 1000-Watt lamps as necessary. The plants were employed for testing when they reached the second or third true leaf stage.
(§2) Weighed amounts of technical or formulated material (emulsifiable concentrate (EC) or soluble concentrate (SL)) were dissolved in a volume of 97:3 volume per volume (v/v) acetone/dimethyl sulfoxide (DMSO) to stock solutions. […] The concentrated stock solutions were diluted with an aqueous mixture of 1.5% v/v of Agri-dex crop oil concentrate to provide the appropriate application rates. Compound requirements are based upon a 12 milliliter (mL) application volume at a rate of 187 liters per hectare (L/ha). Spray solutions of the experimental compound mixtures were prepared by adding the stock solutions to the appropriate amount of dilution solution to form a 12 mL spray solution in two-way combinations. Formulated compounds were applied to the plant material with an overhead Mandel track sprayer equipped with 8002E nozzles calibrated to deliver 187 L/ha over an application area of 0.503 square meters (m^2) at a spray height of 18 inches (43 centimeters (cm)) above average plant canopy. Control plants were sprayed in the same manner with the solvent blank. Application rates for component (a) are in g ae/ha, and application rates for component (b) are in g ai/ha.
(§3) The treated plants and control plants were placed in a greenhouse as described above and watered by sub-irrigation to prevent wash-off of the test compounds. After 20-22 d, the condition of the test plants as compared with that of the control plants was determined visually and scored on a scale of 0 to 100 percent where 0 corresponds to no injury and 100 corresponds to complete kill. The condition of the test plants was compared with that of the control plants as determined visually and scored on a scale of 0 to 100 percent, where 0 corresponds to no injury and 100 corresponds to complete kill. Colby's equation was used to determine the herbicidal effects expected from the mixtures.
(§4) Compound 1 was formulated as an EC and was combined with florasulam, cloransulam, diclosulam, flumetsulam, penoxsulam, or pyroxsulam. Compound 2 was formulated as an EC and was combined with florasulam or pyroxsulam. The mixtures were applied to winter wheat (TRZAW), common rice (ORYSA), maize (ZEAMX), and the phytotoxicity of the herbicidal compositions was measured. In addition, the efficacy of the herbicidal compositions on blackgrass (Alopecurus myosuroides, ALOMY), pigweed (Amaranthus retrollexus, AMARE), wild oat (Avena fatua, AVEFA), common lambsquarters (Chenopodium album L., CHEAL), thistle (Cirsium arvense CIRAR), nutsedge (Cyperus esculentus, CYPES), barnyardgrass (Echinochloa crus-galli, ECHCG), poinsettia (Euphorbia heterophylla, EPHHL), ivyleaf morning-glory (Ipomoea hederacea, IPOHE), kochia (Kochia scoparia, KCHSC), wild buckwheat (Polygonum convolvulus, POLCO), grain sorghum (Sorghum vulgare, SORVU), chickweed (Stellaria media, STEME), wild pansy (Viola tricolor, VIOTR), was evaluated.
(§5) Weighed amounts of technical material were dissolved in a volume of 97:3 volume per volume (v/v) acetone/dimethyl sulfoxide (DMSO) to stock solutions. […] The concentrated stock solutions were diluted with an aqueous mixture of 1.5% v/v of Agri-dex crop oil concentrate to provide the appropriate application rates. Compound requirements are based upon a 12 milliliter (mL) application volume at a rate of 187 liters per hectare (L/ha). […]

For assay [2], the system named is common lambsquarters (Chenopodium album L., CHEAL). The conditions noted are these: Chenopodium album, post-emergence, read-out: % visual injury Obs. On the procedure:
as §1, §2, §3, §4, §5

Assay [3] deals with barnyardgrass (Echinochloa crus-galli, ECHCG). The conditions noted are these: Echinochloa crus-galli, post-emergence, read-out: % visual injury Obs. On the procedure: as §1, §2, §3, §4, §5
Assay [4] relates to ivyleaf morning-glory (Ipomoea hederacea, IPOHE). The conditions noted are these: Ipomoea hederacea, post-emergence, read-out: % visual injury Obs. On the procedure: as §1, §2, §3, §4, §5
For assay [5], the system named is kochia (Kochia scoparia, KCHSC). The conditions noted are these: Bassia scoparia, post-emergence, read-out: % visual injury Obs. On the procedure: as §1, §2
as §3, with “mixtures. […]” for “mixtures.”
(§6) Weighed amounts of technical material were dissolved in a volume of 97:3 volume per volume (v/v) acetone/dimethyl sulfoxide (DMSO) to stock solutions. […] The concentrated stock solutions were diluted with an aqueous mixture of 1.5% v/v of Agri-dex crop oil concentrate to provide the appropriate application rates. Compound requirements are based upon a 12 milliliter (mL) application volume at a rate of 187 liters per hectare (L/ha).

In assay [6] the test system is pigweed (Amaranthus retroflexus, AMARE). The conditions noted are these: Amaranthus retroflexus, post-emergence, read-out: % visual injury Obs. On the procedure: as §1, §2
as §3, with “mixtures. […]” for “mixtures.”
as §6

In assay [7] the test system is thistle (Cirsium arvense, CIRAR). The conditions noted are these: Cirsium arvense, post-emergence, read-out: % visual injury Obs; for pest or weed control: 4.375 g ai/ha. On the procedure:
as §1, §2
as §3, with “mixtures. […]” for “mixtures.”
as §6

Assay [8] has as its system nutsedge (Cyperus esculentus, CYPES). The conditions noted are these: Cyperus, post-emergence, read-out: % visual injury Obs; for pest or weed control: 4.375 g ai/ha. On the procedure:
as §1
as §2, with “technical” for “technical or formulated”, “material” for “material (emulsifiable concentrate (EC) or soluble concentrate (SL))”
as §3, with “mixtures. […]” for “mixtures.”
as §2

Assay [9] concerns poinsettia (Euphorbia heterophylla, EPHHL). The conditions noted are these: Euphorbia heterophylla, post-emergence, read-out: % visual injury Obs. On the procedure: as §1
as §2, with “technical” for “technical or formulated”, “material” for “material (emulsifiable concentrate (EC) or soluble concentrate (SL))”
as §3, with “mixtures. […]” for “mixtures.”
as §2

Assay [10] concerns wild buckwheat (Polygonum convolvulus, POLCO). The conditions noted are these: Fallopia convolvulus, post-emergence, read-out: % visual injury Obs. On the procedure: as §1, §2
as §3, with “mixtures. […]” for “mixtures.”
as §6

Assay [11] relates to grain sorghum (Sorghum vulgare, SORVU). On the procedure: as §1, §2, §3, §4, §5
Assay [12] has as its system blackgrass (Alopecurus myosuroides, ALOMY). The conditions noted are these: ALOMY; foramsulfuron 10 g ai/ha. On the procedure: as §1, §2, §3, §4, §5
The subject of assay [13] is wild pansy (Viola tricolor, VIOTR). The conditions noted are these: Viola tricolor, post-emergence, read-out: % visual injury Obs. On the procedure:
as §1, §2, §3
as §4, with “Compound 1 was formulated as an EC and was combined with florasulam, cloransulam, diclosulam, flumetsulam, penoxsulam, or pyroxsulam.” left out
as §6

Molecules are shown by their SMILES. Read-outs that look alike come from different tables or passages of the source.

As for `CCOc1nc(F)cc2nc(S(=O)(=O)Nc3c(Cl)cccc3Cl)nn12` [Diclosulam, diclosulam], the pest or weed control in [1] (4.375 g ai/ha) worked out at 0%; in assay [2] (4.375 g ai/ha), 0%; in [3] (4.375 g ai/ha) it was 30%; in assay [4] (4.375 g ai/ha) it was 93%; in assay [5] (4.375 g ai/ha), 50%; in [6] (4.375 g ai/ha), 60%. In addition, the pest or weed control worked out at 93% in assay [7], 50% in assay [8] and 60% in assay [9] (4.375 g ai/ha).
As to `COc1cc(OC)nc(NC(=O)NS(=O)(=O)N(C)S(C)(=O)=O)n1` [Amidosulfuron, amidosulfuron], the pest or weed control at […] in [3] (7.5 g ai/ha) stood at 0%; in assay [4] (7.5 g ai/ha), 35%; in assay [5] (7.5 g ai/ha) it was 10%; in [7] (7.5 g ai/ha), 20%; in [10] (7.5 g ai/ha), 85%; in assay [8] (7.5 g ai/ha) it was 20%.
In the case of `COC(=O)c1ccc(CNS(C)(=O)=O)cc1S(=O)(=O)NC(=O)Nc1nc(OC)cc(OC)n1` [Mesosulfuron, mesosulfuron], in assay [11] (SORVU, mesosulfuron 3 g ai/ha), the “% visual injury Obs” value worked out at 97%. The pest or weed control at 3 g/ha in [5] (KCHSC, mesosulfuron 3 g ai/ha) amounted to 10%; in assay [10] (POLCO, mesosulfuron 3 g ai/ha), 20%.
As to `COc1cc(OC)nc(NC(=O)NS(=O)(=O)c2cc(NC=O)ccc2C(=O)N(C)C)n1` [Foramsulfuron, foramsulfuron], the “% visual injury Obs” value in assay [12] is reported as 93%. Besides, the pest or weed control at 10 g/ha in assay [6] (AMARE, foramsulfuron 10 g ai/ha) was 85%.
As to `COc1cnc(OC)n2nc(NS(=O)(=O)c3c(OCC(F)F)cccc3C(F)(F)F)nc12` [Penoxsulam, penoxsulam], in assay [11] (5 g ai/ha), the “% visual injury Obs” value worked out at 0%. Besides, the pest or weed control at 5 g/ha was determined as 90% in [4] (5 g ai/ha), 10% in assay [5] (5 g ai/ha), 70% in assay [8] (5 g ai/ha) and 60% in assay [9] (5 g ai/ha).
For the compound `Cc1ccn2nc(S(=O)(=O)Nc3c(F)cccc3F)nc2n1` [Flumetsulam, flumetsulam], the “% visual injury Obs” value in assay [11] (4.375 g ai/ha) is on record as 60%. In addition, the pest or weed control was found to be 70% in [13] (4.375 g ai/ha); 60% in assay [5] (4.375 g ai/ha); 10% in assay [7]; 10% in assay [8]; 30% in assay [9] (4.375 g ai/ha).
Consider `COc1cc(OC)nc(NC(=O)NS(=O)(=O)c2c(-c3nnn(C)n3)cnn2C)n1` [Azimsulfuron, azimsulfuron], for which, in [11] (SORVU, azimsulfuron 6.25 g ai/ha), the “% visual injury Obs” value is 65%. Further, the pest or weed control in assay [1] (STEME, azimsulfuron 6.25 g ai/ha) amounted to 20%; in assay [2] (CHEAL, azimsulfuron 6.25 g ai/ha) it was 10%; in [4] (IPOHE, azimsulfuron 6.25 g ai/ha) it was 93%; in assay [13] (VIOTR, azimsulfuron 6.25 g ai/ha), 60%; in assay [5] (KCHSC, azimsulfuron 6.25 g ai/ha), 0%; in [9] (EPHHL, azimsulfuron 6.25 g ai/ha), 10%.

The values are drawn from patent publication US20190364896A1, “SYNERGISTIC WEED CONTROL FROM APPLICATIONS OF PYRIDINE CARBOXYLIC ACID HERBICIDES AND ALS INHIBITORS” (Dow AgroSciences LLC, priority 2014, published 2019).
